According to ChEMBL document CHEMBL1821645, “Synthesis and anticancer activity of (RS)-9-(2,3-dihydro-1,4-benzoxaheteroin-2-ylmethyl)-9H-purines” (Eur J Med Chem, 2011):
Activity calls are given as the source filed them. No cut-off for these calls is given here.

Assays:
MCF7 [1] = assay: Induction of apoptosis in human MCF7 cells assessed as activation of caspase 9 at 3 times IC50 after 16 to 36 hrs by immunoblotting; assay type: functional, cell-based
[2] = target: Cellular tumor antigen p53 (Homo sapiens) (UniProt P04637); assay: Induction of p53 activation in human MCF7 cells assessed as phosphorylation at Ser15 at 3 times IC50 after 4 to 36 hrs by Western blot analysis; assay type: cell-based
MCF7 [3] = assay: Antiproliferative activity against human MCF7 cells after 3 days by sulforhodamine-B colorimetric assay; assay type: functional, cell-based; conditions: MCF7, 72 h
MCF7 [4] = assay: Cell cycle arrest in human MCF7 cells assessed as accumulation at G0/G1 phase after 48 hrs by flow cytometry (reference value: 62.79 +/- 1.30 %); assay type: functional
MCF7 [5] = assay: Cell cycle arrest in human MCF7 cells assessed as accumulation at […] phase after 48 hrs by flow cytometry (reference value: 19.29 +/- 1.68 %); assay type: functional
MCF7 [6] = assay: Cell cycle arrest in human MCF7 cells assessed as accumulation at G2/M phase after 48 hrs by flow cytometry (reference value: 13.26 +/- 2.98 %); assay type: functional
MCF7 [7] = assay: Induction of apoptosis in human MCF7 cells at 3 times IC50 after 48 hrs by using Annexin V-FITC staining by flow cytometry (reference value: 0.92 +/- 1.29 %); assay type: functional
[8] = target: Eukaryotic translation initiation factor 2 subunit 1 (Homo sapiens) (UniProt P05198); assay: Induction of eIF2alpha phosphorylation in human MCF7 cells at 3 times IC50 after 36 hrs by Western blot analysis; assay type: cell-based
Eukaryotic translation initiation factor 2 subunit 1 (Homo sapiens), sequence (P05198 whole entry): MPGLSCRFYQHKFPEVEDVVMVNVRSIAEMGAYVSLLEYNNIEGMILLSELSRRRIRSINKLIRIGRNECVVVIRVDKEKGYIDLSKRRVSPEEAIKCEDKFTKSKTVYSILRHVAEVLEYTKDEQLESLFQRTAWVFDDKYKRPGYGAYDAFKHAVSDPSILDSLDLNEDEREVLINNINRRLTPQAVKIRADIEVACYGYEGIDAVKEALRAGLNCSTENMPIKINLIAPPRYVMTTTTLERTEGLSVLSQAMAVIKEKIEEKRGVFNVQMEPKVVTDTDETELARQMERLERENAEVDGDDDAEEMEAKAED

Cellular tumor antigen p53 (Homo sapiens), sequence (P04637 whole entry, looked up): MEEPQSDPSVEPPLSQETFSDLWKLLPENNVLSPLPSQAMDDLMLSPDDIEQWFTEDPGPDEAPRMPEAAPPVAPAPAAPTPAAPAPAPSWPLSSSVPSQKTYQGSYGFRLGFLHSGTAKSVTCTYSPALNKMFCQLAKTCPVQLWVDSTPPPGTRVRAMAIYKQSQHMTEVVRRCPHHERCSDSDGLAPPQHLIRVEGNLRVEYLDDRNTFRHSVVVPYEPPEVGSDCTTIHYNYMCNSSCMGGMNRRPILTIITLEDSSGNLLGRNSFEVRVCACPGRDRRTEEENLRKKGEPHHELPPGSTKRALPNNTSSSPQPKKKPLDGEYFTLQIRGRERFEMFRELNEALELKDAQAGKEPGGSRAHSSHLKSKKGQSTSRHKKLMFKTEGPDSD

Row | Activity [2] | IC50 (MCF7 [3]) [µM] | Activity [8] | Compound | Activity (MCF7 [1]) | Activity (MCF7 [4]) [%] | Activity (MCF7 [5]) [%] | Activity (MCF7 [6]) [%] | Activity (MCF7 [7]) [%]
1 | inactive |  |  | CC(=O)O[C@H]1C(=O)[C@@]2(C)[C@H]([C@H](OC(=O)c3ccccc3)[C@]3(O)C[C@H](OC(=O)[C@H](O)[C@@H](NC(=O)c4ccccc4)c4ccccc4)C(C)=C1C3(C)C)[C@]1(OC(C)=O)CO[C@@H]1C[C@@H]2O | Active |  |  |  | 
2 |  | 10.6 |  | Clc1ncnc2c1ncn2CC1COc2ccccc2S1 (racemic) |  |  |  |  | 
3 |  | 6.18 |  | Brc1ncnc2c1ncn2CC1COc2ccccc2S1 (racemic) |  |  |  |  | 
4 |  | 8.97 |  | Clc1nc(Cl)c2ncn(CC3COc4ccccc4S3)c2n1 (racemic) |  |  |  |  | 
5 | inactive | 9.24 | Active | Clc1ncnc2c1ncn2CC1CSc2ccccc2O1 (racemic) | Active | 62.87 | 13.77 | 23.35 | 37.99
6 | inactive | 4.87 | Active | Brc1ncnc2c1ncn2CC1CSc2ccccc2O1 (racemic) | Active | 51.56 | 17.06 | 31.37 | 14.33
7 | inactive | 2.75 | Active | Clc1nc(Cl)c2ncn(CC3CSc4ccccc4O3)c2n1 (racemic) | Active | 45.28 | 10.83 | 43.89 | 70.08
8 |  | > 30 |  | Nc1ncnc2c1ncn2CC1CSc2ccccc2O1 (racemic) |  |  |  |  | 
9 |  | 18.8 |  | Clc1ncnc2c1ncn2CC1COc2ccccc2O1 (racemic) |  |  |  |  | 
10 |  | 7.64 |  | Brc1ncnc2c1ncn2CC1COc2ccccc2O1 (racemic) |  | 53.02 | 10.27 | 36.71 | 21.66
11 |  | 19.6 |  | Clc1nc(Cl)c2ncn(CC3COc4ccccc4O3)c2n1 (racemic) |  |  |  |  | 
12 |  | > 30 |  | Nc1ncnc2c1ncn2CC1COc2ccccc2O1 (racemic) |  |  |  |  | 
